Patent US20240059691A1 (KALVISTA PHARMACEUTICALS LIMITED, priority 2020, published 2024)

Experiments:
Format in all cases: biochemical
Human Factor XIIa = Human Factor XIIa (Homo sapiens (Human), UniProt P00748); assay: Determination of FXIIa inhibition (fluorogenic substrate H-DPro-Phe-Arg-AFC, IC50 assay); conditions: substrate H-DPro-Phe-Arg-AFC at Km, 25° C.; class scale A-G
How it was run: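 Human FXIIa incubated at 25° C with fluorogenic substrate H-DPro-Phe-Arg-AFC at its Km concentration and varying compound concentrations. Fluorescence release monitored over 5 min at 25° C; linear rate expressed as % of uninhibited activity to derive IC50.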

Plasma Kallikrein = Plasma Kallikrein (Homo sapiens (Human), UniProt P03952); assay: Determination of related protease inhibition: Plasma Kallikrein (fluorogenic substrate at Km); conditions: 25° C., read-out: IC50 (human PKal)
Sequence of Plasma Kallikrein (P03952 391-638): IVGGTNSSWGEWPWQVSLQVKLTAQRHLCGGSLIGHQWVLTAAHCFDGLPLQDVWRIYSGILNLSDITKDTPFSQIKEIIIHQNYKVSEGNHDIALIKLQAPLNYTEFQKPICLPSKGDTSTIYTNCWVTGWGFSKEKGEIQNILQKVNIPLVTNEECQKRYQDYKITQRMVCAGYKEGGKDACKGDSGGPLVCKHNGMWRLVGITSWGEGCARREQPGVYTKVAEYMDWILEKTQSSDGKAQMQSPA
Sequence of Plasma Kallikrein (P03952 20-390 partner): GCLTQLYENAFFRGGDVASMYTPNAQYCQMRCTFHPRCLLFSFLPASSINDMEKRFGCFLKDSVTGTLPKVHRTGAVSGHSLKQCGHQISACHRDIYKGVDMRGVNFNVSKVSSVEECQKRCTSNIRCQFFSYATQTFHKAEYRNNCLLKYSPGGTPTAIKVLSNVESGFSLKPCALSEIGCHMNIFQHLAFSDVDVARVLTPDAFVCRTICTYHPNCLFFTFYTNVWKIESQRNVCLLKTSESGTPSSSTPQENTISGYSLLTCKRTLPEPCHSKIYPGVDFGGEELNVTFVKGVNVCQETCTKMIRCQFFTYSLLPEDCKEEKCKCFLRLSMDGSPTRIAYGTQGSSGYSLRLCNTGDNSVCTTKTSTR
How it was run: (§1)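 Human protease + fluorogenic substrate (at Km) + test cpd, varied concns; fluorescence kinetic read 5 min, 25 °C. Linear slope → % activity vs uninhibited control; IC50 at 50% inhibition.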

KLK1 = KLK1 (Homo sapiens (Human), UniProt P06870); assay: Determination of related protease inhibition: KLK1 (fluorogenic substrate at Km); conditions: 25° C.
Sequence of KLK1 (P06870 25-262): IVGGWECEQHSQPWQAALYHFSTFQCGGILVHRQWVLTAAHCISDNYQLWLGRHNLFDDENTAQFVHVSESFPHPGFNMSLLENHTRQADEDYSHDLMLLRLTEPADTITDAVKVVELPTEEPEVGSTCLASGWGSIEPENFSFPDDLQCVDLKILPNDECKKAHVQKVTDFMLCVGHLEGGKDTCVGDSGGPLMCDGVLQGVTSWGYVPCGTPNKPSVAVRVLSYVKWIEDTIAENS
How it was run: as §1

FXa = FXa (Homo sapiens (Human), UniProt P00742); assay: Determination of related protease inhibition: FXa (fluorogenic substrate at Km); conditions: 25° C.
Sequence of FXa (P00742 235-488): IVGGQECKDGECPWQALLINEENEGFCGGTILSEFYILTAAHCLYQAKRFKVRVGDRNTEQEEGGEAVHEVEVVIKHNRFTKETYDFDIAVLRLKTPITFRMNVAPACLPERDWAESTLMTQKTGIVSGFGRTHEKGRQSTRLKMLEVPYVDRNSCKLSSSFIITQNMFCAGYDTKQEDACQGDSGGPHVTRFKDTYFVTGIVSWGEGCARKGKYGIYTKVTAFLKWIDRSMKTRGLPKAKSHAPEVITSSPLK
Sequence of FXa (P00742 41-179 partner): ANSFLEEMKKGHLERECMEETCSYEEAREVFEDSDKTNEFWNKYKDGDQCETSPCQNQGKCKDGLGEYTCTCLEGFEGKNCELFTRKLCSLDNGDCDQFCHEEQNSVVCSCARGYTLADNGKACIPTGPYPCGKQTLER
Protocol: (§2) Determination of Related Protease Inhibition
(§3) In vitro inhibition of related proteases was determined using an ([…] assay based on standard literature methods (see e.g. Shori et al., Biochem. Pharmacol., 1992, 43, 1209; Bouckaert et al., European Journal of Medicinal Chemistry 110 (2016) 181). Human serine protease enzymes Plasma Kallikrein, KLK1, FXa, Plasmin, Thrombin and Trypsin were assayed for enzymatic activity using an appropriate fluorogenic substrate at Km concentration, FXIa at fixed substrate concentration of 100 μM, and various concentrations of the test compound. Protease activity was measured by monitoring the accumulation of liberated fluorescence from the substrate over […]. The linear rate of fluorescence increase per minute was expressed as percentage (%) activity. IC50 values were calculated as the concentration of inhibitor giving 50% inhibition of the uninhibited enzyme activity (100%).

Thrombin = Thrombin (Homo sapiens (Human), UniProt P00734); assay: Determination of related protease inhibition: Thrombin (fluorogenic substrate at Km); conditions: 25° C.
Protocol: as §2, §3

Sequence of Human Factor XIIa (P00748 373-615): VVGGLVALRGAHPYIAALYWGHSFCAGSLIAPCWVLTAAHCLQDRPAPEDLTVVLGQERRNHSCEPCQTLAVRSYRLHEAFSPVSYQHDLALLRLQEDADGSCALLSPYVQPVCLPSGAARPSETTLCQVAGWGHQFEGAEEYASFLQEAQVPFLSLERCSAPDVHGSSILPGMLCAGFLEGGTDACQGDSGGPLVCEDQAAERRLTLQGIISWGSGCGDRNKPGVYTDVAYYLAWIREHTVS

| Compound | IC50 (Human Factor XIIa) [nM] | IC50 (Plasma Kallikrein) [µM] | IC50 (KLK1) [µM] | IC50 (FXa) [µM] | IC50 (Thrombin) [µM] |
| --- | --- | --- | --- | --- | --- |
| CN1CC(OCc2ccc(CNc3cccc4c(N)nccc34)c(F)c2)CCC1=O (stereo not shown) [Example 2209, 5-[[4-[[(1-amino-5-isoquinolyl)amino]methyl]-3-fluoro-phenyl]methoxy]-1-methyl-piperidin-2-one] | 1000 to 3000 | > 40 | 10 to 40 | > 40 | > 40 |
| Cn1ccnc1CCOc1cc(CNc2cccc3c(N)nccc23)ccn1 [Example 4282, 5-N-({2-[2-(1-methylimidazol-2-yl)ethoxy]pyridin-4-yl}methyl)isoquinoline-1,5-diamine] | 1000 to 3000 | > 40 | 3 to 10 | 10 to 40 | > 40 |
| Cc1nnc2n1CCN(c1ccc(CNc3cccc4c(N)nccc34)cn1)C2 [Example 1279, N5-((6-(3-methyl-5,6-dihydro-[1,2,4]triazolo[4,3-a]pyrazin-7(8H)-yl)pyridin-3-yl)methyl)isoquinoline-1,5-diamine] | 100 to 300 | > 40 | 3 to 10 | > 40 | > 40 |
| Nc1nccc2c(NCc3ccc(CN4CCOCC4)cc3F)cccc12 [Example 1034, 5-N-{[2-fluoro-4-(morpholin-4-ylmethyl)phenyl]methyl}isoquinoline-1,5-diamine] | 10000 to 40000 | > 40 | 10 to 40 | > 40 | > 40 |
| CN1CCC(COc2cc(CNc3nccc4c(N)ccnc34)ccn2)CC1 [Example 4273, N8-((2-((1-methylpiperidin-4-yl)methoxy)pyridin-4-yl)methyl)-1,7-naphthyridine-4,8-diamine] | 3000 to 10000 | > 40 | 10 to 40 | 3 to 10 | > 40 |
| Nc1nccc2cc(NCc3ccnc(-c4cccc(CN5CCCC5)c4)c3)ccc12 [Example 4434, 6-N-({2-[3-(pyrrolidin-1-ylmethyl)phenyl]pyridin-4-yl}methyl)isoquinoline-1,6-diamine] | 100 to 300 | > 40 | 3 to 10 | 3 to 10 | > 40 |
| CN1CC2C(COc3cc(CNc4ccc5c(N)nccc5c4)ccn3)C2C1 (stereo not shown) [Example 4269, N6-((2-((3-methyl-3-azabicyclo[3.1.0]hexan-6-yl)methoxy)pyridin-4-yl)methyl)isoquinoline-1,6-diamine] | 100 to 300 | 3 to 10 | 0.3 to 1 | 0.01 to 0.1 | 0.3 to 1 |
| CN1CCC(CNc2ccc(CNc3ccnc(N)c3)cn2)CC1 [Example 1096, N4-((6-(((1-methylpiperidin-4-yl)methyl)amino)pyridin-3-yl)methyl)pyridine-2,4-diamine] | 3000 to 10000 | > 40 | 10 to 40 | 10 to 40 | 10 to 40 |
| CN1CC(C2CN(c3cc(CNc4ccc5c(N)nccc5c4)ccn3)C2)C1 [Example 5435, N6-((2-(1′-methyl-[3,3′-biazetidin]-1-yl)pyridin-4-yl)methyl)isoquinoline-1,6-diamine] | 1000 to 3000 | 10 to 40 | 1 to 3 | 3 to 10 | 3 to 10 |
| CC(C)N1C[C@H]2C[C@@H]1CN2Cc1cc(CNc2cccc3c(N)nccc23)ccn1 [Example 4294, 5-N-[(2-{[(1R,4R)-5-isopropyl-2,5-diazabicyclo[2.2.1]heptan-2-yl]methyl}pyridin-4-yl)methyl]isoquinoline-1,5-diamine] | 10000 to 40000 | > 40 | 10 to 40 | > 40 | > 40 |
| CN1CCC(CNc2ccc(CNc3cncc4[nH]c(Cl)cc34)cn2)CC1 [Example 1251, 2-Chloro-N-((6-(((1-methylpiperidin-4-yl)methyl)amino)pyridin-3-yl)methyl)-1H-pyrrolo[2,3-c]pyridin-4-amine] | 10 to 100 | 10 to 40 | 10 to 40 | 1 to 3 | 3 to 10 |
| CN1CCC(CNc2cc(CNc3ccc4c(N)nccc4c3)ccn2)CC1 [Example 4284, 6-N-[(2-{[(1-methylpiperidin-4-yl)methyl]amino}pyridin-4-yl)methyl]isoquinoline-1,6-diamine] | 100 to 300 | 10 to 40 | 1 to 3 | 0.3 to 1 | 10 to 40 |
| CC(C)N1C[C@H]2C[C@@H]1CN2CCc1ccc(CNc2ccc3c(N)ncc(Cl)c3c2)c(F)c1 [Example 2214, 4-chloro-6-N-[(2-fluoro-4-{2-[(1R,4R)-5-isopropyl-2,5-diazabicyclo[2.2.1]heptan-2-yl]ethyl}phenyl)methyl]isoquinoline-1,6-diamine] | 300 to 1000 | 10 to 40 | 3 to 10 | > 40 | > 40 |
| CC(C)N1CCC(CN(CCCO)C(=O)c2cccc(CNc3cccc4c(N)nccc34)c2)CC1 [Example 4441, 3-{[(1-aminoisoquinolin-5-yl)amino]methyl}-N-(3-hydroxypropyl)-N-[(1-isopropylpiperidin-4-yl)methyl]benzamide] | 100 to 300 | 10 to 40 | 1 to 3 | > 40 | > 40 |
| Nc1nccc2c(NCc3ccc(N4CCn5c(nnc5C(F)(F)F)C4)nc3)cccc12 [Example 1275, N5-((6-(3-(trifluoromethyl)-5,6-dihydro-[1,2,4]triazolo[4,3-a]pyrazin-7(8H)-yl)pyridin-3-yl)methyl)isoquinoline-1,5-diamine] | 300 to 1000 | > 40 | 3 to 10 | > 40 | > 40 |
| Nc1nccc2c(NCc3ccc(OCC4CCn5ccnc5C4)nc3)cccc12 (single isomer, unassigned) [Example 1030, (S*)-N5-((6-((5,6,7,8-tetrahydroimidazo[1,2-a]pyridin-7-yl)methoxy)pyridin-3-yl)methyl)isoquinoline-1,5-diamine] | 300 to 1000 | 10 to 40 | 3 to 10 | 10 to 40 | 10 to 40 |
| CN1CCN(CCc2ccc(CNc3ccc4c(N)nccc4c3)c(F)c2)CC1 [Example 2181, 6-N-({2-fluoro-4-[2-(4-methylpiperazin-1-yl)ethyl]phenyl}methyl)isoquinoline-1,6-diamine] | 300 to 1000 | 10 to 40 | 0.3 to 1 | 10 to 40 | 3 to 10 |
| CN1CCC(CNc2ccc(CNc3ccc4cnccc4c3F)cn2)CC1 [Example 1224, 5-fluoro-N-((6-(((1-methylpiperidin-4-yl)methyl)amino)pyridin-3-yl)methyl)isoquinolin-6-amine] | 3000 to 10000 | > 40 | > 40 | > 40 | > 100 |
| CN1CCC(CNc2ccc(CNc3cncc4[nH]ccc34)cn2)CC1 [Example 1213, N-((6-(((1-methylpiperidin-4-yl)methyl)amino)pyridin-3-yl)methyl)-1H-pyrrolo[2,3-c]pyridin-4-amine] | 3000 to 10000 | 10 to 40 | > 100 | > 40 | 10 to 40 |
| Cn1ccnc1CCCOc1ncc(CNc2cccc3c(N)nccc23)cn1 [Example 1035, N5-((2-(3-(1-methyl-1H-imidazol-2-yl)propoxy)pyrimidin-5-yl)methyl)isoquinoline-1,5-diamine] | 3000 to 10000 | > 40 | 10 to 40 | > 40 | > 40 |
